Reference: PubChem BioAssay (NCI)
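These data come from cells grown in 96-well plates and exposed to compound for 48 hours at five concentrations. Here, GI50 denotes the concentration required for 50% inhibition of growth. TGI: total growth inhibition.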

Tests used:
Test in all cases: growth of human tumour cells (NCI), 48 h
[1] = tested on: 786-0 renal
[2] = tested on: A498 renal
[3] = tested on: A549 NSCLC
[4] = tested on: ACHN renal
[5] = tested on: CAKI-1 renal
[6] = tested on: CCRF-CEM leukemia
[7] = tested on: COLO 205 colon
[8] = tested on: DU-145 prostate
[9] = tested on: HCT-116 colon
[10] = tested on: HCT-15 colon
[11] = tested on: HL-60(TB) leukemia
[12] = tested on: HOP-62 NSCLC
[13] = tested on: HS 578T breast
[14] = tested on: HT29 colon
[15] = tested on: IGROV1 ovarian
[16] = tested on: K-562 leukemia
[17] = tested on: KM12 colon
[18] = tested on: LOX IMVI melanoma
[19] = tested on: M14 melanoma
[20] = tested on: MCF7 breast
[21] = tested on: MDA-MB-231 breast
[22] = tested on: MDA-MB-435
[23] = tested on: NCI-H226 lung
[24] = tested on: NCI-H23 lung
[25] = tested on: NCI-H460 lung
[26] = tested on: NCI-H522 lung
[27] = tested on: NCI/ADR-RES ovarian
[28] = tested on: OVCAR-3 ovarian
[29] = tested on: OVCAR-4 ovarian
[30] = tested on: OVCAR-5 ovarian
[31] = tested on: OVCAR-8 ovarian
[32] = tested on: PC-3 prostate
[33] = tested on: RPMI-8226 leukemia
[34] = tested on: RXF 393 renal
[35] = tested on: SF-268 CNS
[36] = tested on: SF-295 CNS
[37] = tested on: SK-MEL-28 melanoma
[38] = tested on: SK-OV-3 ovarian
[39] = tested on: SN12C renal
[40] = tested on: SNB-19 CNS
[41] = tested on: SNB-75 CNS
[42] = tested on: SR leukemia
[43] = tested on: T-47D breast
[44] = tested on: TK-10 renal
[45] = tested on: U251 CNS
[46] = tested on: UACC-257 melanoma
[47] = tested on: UO-31 renal

**Q.** `CC(=O)CCc1ccc(Oc2c3ccccc3nc3occc23)cc1` was tested. Which GI50 [1] did it give?
**A.** 18.5 µM

**Q.** What about the TGI [1] of the same molecule?
**A.** 45.2 µM

**Q.** And the GI50 [2]?
**A.** 15.8 µM

**Q.** And the TGI [2]?
**A.** 29.2 µM

**Q.** What about the GI50 [3] of the same molecule?
**A.** 15.6 µM

**Q.** And the TGI [3]?
**A.** 35.2 µM

**Q.** What about the GI50 [4] of the same molecule?
**A.** 19.1 µM

**Q.** And the TGI [4]?
**A.** 49.6 µM

**Q.** And the GI50 [5]?
**A.** 18.2 µM

**Q.** What about the TGI [5] of the same molecule?
**A.** 42 µM

**Q.** What about the GI50 [6] of the same molecule?
**A.** 24.1 µM

**Q.** And the TGI [6]?
**A.** 94.7 µM

**Q.** What about the GI50 [7] of the same molecule?
**A.** 16.8 µM

**Q.** And the TGI [7]?
**A.** 33.1 µM

**Q.** And the GI50 [8]?
**A.** 14.8 µM

**Q.** What about the TGI [8] of the same molecule?
**A.** 34.1 µM

**Q.** And the GI50 [9]?
**A.** 19.1 µM

**Q.** And the TGI [9]?
**A.** 79.5 µM

**Q.** And the GI50 [10]?
**A.** 18.6 µM

**Q.** And the TGI [10]?
**A.** 73.7 µM

**Q.** And the GI50 [11]?
**A.** 8.67 µM

**Q.** What about the TGI [11] of the same molecule?
**A.** 74.5 µM

**Q.** And the GI50 [12]?
**A.** 20.1 µM

**Q.** What about the TGI [12] of the same molecule?
**A.** 35.4 µM

**Q.** And the GI50 [13]?
**A.** 20.4 µM

**Q.** And the TGI [13]?
**A.** 44.5 µM

**Q.** And the GI50 [14]?
**A.** 18 µM

**Q.** What about the TGI [14] of the same molecule?
**A.** 50.6 µM

**Q.** What about the GI50 [15] of the same molecule?
**A.** 33.9 µM

**Q.** What about the TGI [15] of the same molecule?
**A.** > 100 µM

**Q.** What about the GI50 [16] of the same molecule?
**A.** 25.2 µM

**Q.** And the TGI [16]?
**A.** > 100 µM

**Q.** And the GI50 [17]?
**A.** 16.1 µM

**Q.** And the TGI [17]?
**A.** 40 µM

**Q.** What about the GI50 [18] of the same molecule?
**A.** 14.8 µM

**Q.** And the TGI [18]?
**A.** 41.8 µM

**Q.** What about the GI50 [19] of the same molecule?
**A.** 15.3 µM

**Q.** And the TGI [19]?
**A.** 29.2 µM

**Q.** And the GI50 [20]?
**A.** 21.3 µM

**Q.** What about the TGI [20] of the same molecule?
**A.** 46.3 µM

**Q.** And the GI50 [21]?
**A.** 25.5 µM

**Q.** What about the TGI [21] of the same molecule?
**A.** > 100 µM

**Q.** And the GI50 [22]?
**A.** 17.7 µM

**Q.** What about the TGI [22] of the same molecule?
**A.** 43.9 µM

**Q.** And the GI50 [23]?
**A.** 15.5 µM

**Q.** And the TGI [23]?
**A.** 34.3 µM

**Q.** And the GI50 [24]?
**A.** 13 µM

**Q.** And the TGI [24]?
**A.** 39.3 µM

**Q.** What about the GI50 [25] of the same molecule?
**A.** 15.6 µM

**Q.** What about the TGI [25] of the same molecule?
**A.** 31.9 µM

**Q.** And the GI50 [26]?
**A.** 26.9 µM

**Q.** And the TGI [26]?
**A.** > 100 µM

**Q.** What about the GI50 [27] of the same molecule?
**A.** 15.4 µM

**Q.** And the TGI [27]?
**A.** 45.6 µM

**Q.** And the GI50 [28]?
**A.** 14 µM

**Q.** And the TGI [28]?
**A.** 31.6 µM

**Q.** What about the GI50 [29] of the same molecule?
**A.** 37.6 µM

**Q.** And the TGI [29]?
**A.** > 100 µM

**Q.** What about the GI50 [30] of the same molecule?
**A.** 19 µM

**Q.** And the TGI [30]?
**A.** 38.9 µM

**Q.** What about the GI50 [31] of the same molecule?
**A.** 15.7 µM

**Q.** What about the TGI [31] of the same molecule?
**A.** 41.4 µM

**Q.** What about the GI50 [32] of the same molecule?
**A.** 14 µM

**Q.** What about the TGI [32] of the same molecule?
**A.** 41 µM

**Q.** What about the GI50 [33] of the same molecule?
**A.** 13.8 µM

**Q.** And the TGI [33]?
**A.** 53.9 µM

**Q.** And the GI50 [34]?
**A.** 14 µM

**Q.** And the TGI [34]?
**A.** 39.1 µM

**Q.** And the GI50 [35]?
**A.** 18.9 µM

**Q.** What about the TGI [35] of the same molecule?
**A.** 38.1 µM

**Q.** And the GI50 [36]?
**A.** 15.7 µM

**Q.** And the TGI [36]?
**A.** 40.9 µM

**Q.** What about the GI50 [37] of the same molecule?
**A.** 22.9 µM

**Q.** What about the TGI [37] of the same molecule?
**A.** 46.7 µM

**Q.** And the GI50 [38]?
**A.** 17.8 µM

**Q.** And the TGI [38]?
**A.** 41.4 µM

**Q.** And the GI50 [39]?
**A.** 26.7 µM

**Q.** And the TGI [39]?
**A.** 96.5 µM

**Q.** What about the GI50 [40] of the same molecule?
**A.** 19.5 µM

**Q.** What about the TGI [40] of the same molecule?
**A.** 48 µM

**Q.** And the GI50 [41]?
**A.** 22.4 µM

**Q.** What about the TGI [41] of the same molecule?
**A.** 61 µM

**Q.** What about the GI50 [42] of the same molecule?
**A.** 19.7 µM

**Q.** What about the TGI [42] of the same molecule?
**A.** 57.3 µM

**Q.** And the GI50 [43]?
**A.** 2.3 µM

**Q.** What about the TGI [43] of the same molecule?
**A.** 22.6 µM

**Q.** What about the GI50 [44] of the same molecule?
**A.** 15.4 µM

**Q.** What about the TGI [44] of the same molecule?
**A.** 43.9 µM

**Q.** And the GI50 [45]?
**A.** 13.5 µM

**Q.** What about the TGI [45] of the same molecule?
**A.** 33.8 µM

**Q.** What about the GI50 [46] of the same molecule?
**A.** 14.4 µM

**Q.** And the TGI [46]?
**A.** 28 µM

**Q.** And the GI50 [47]?
**A.** 22.9 µM

**Q.** What about the TGI [47] of the same molecule?
**A.** > 100 µM
